Assay results as given in patent US20030124167A1, “Pest controlling” (priority 1999, published 2003).

Assay: Miscibility of pheromones with corn oil or triethylcitrate
Type: physicochemical
Source text: Miscibility of the active ingredient and diluents were further examined by forming mixtures of various active ingredients (pheromones) with corn oil or triethylcitrate. The final composition of the mixture produced was 40 vol. % pheromones and 60 vol. % diluent (i.e., corn oil or triethyl citrate). The individual pheromones evaluated were: tomato pinworm, pink bollworm, leafroller, oriental fruitmoth, and coddling moth.

- Dissolution in both corn oil and triethyl citrate (pheromone solid at room temperature): dissolved freely
- Miscibility in corn oil or triethylcitrate (room temperature, 40 vol. % pheromones/60 vol. % diluent): completely miscible
SMILES: C/C=C/C=C/CCCCCCCO [coddling moth]
